# Laboratory results published in PMC2211560 (PLoS Medicine, 2008).
# “And” between values parts separate entries of the source, which are not always exact repeats. Identical values can stand only once. Like-named read-outs stand apart in the source and are kept apart here.
# Key:
# [1] = test system: cytochrome P450 isoenzyme 3A4; settings: cited from earlier work
# [2] = test system: Akt; assay: PRAS40 (threonine 246) phosphorylation in tumor tissue by IHC; format: in vivo, human; settings: for pPRAS 40 Induction: statistically significant increase S2 vs S1 (p < 0.05, Wilcoxon), individual patients
# Excerpt: The following antibodies were used for IHC: anti-PTEN (6H2.1, #ABM-2052, Cascade BioScience; 1:400 dilution), anti-Ki-67 (MIB-1, M7240, DakoCytomation; 1:100 Dilution), anti-phospho Ser235/236 S6 (91B2, #4857, Cell Signaling; 1:50 dilution), anti phospho Ser240/244 S6 (#2215, Cell Signaling; 1:200 dilution), anti-phospho-PRAS 40 (#44–1100G, Biosource; 1:200 dilution), anti-phospho Ser473 Akt (736E11, #3787, Cell Signaling; 1:50 dilution), anti-phospho Thr389 p70 S6 Kinase (#9205, Cell Signaling; 1:100 Dilution), and anti phospho Ser1108 eIF4G at 1:400 (#2441, Cell Signaling; 1:400 dilution). Antigen retrieval was performed using 0.01 M citrate buffer, pH 6.0 for 30 min in an oven and peroxidase activity was quenched with 3% hydrogen peroxide in water. Primary antibodies were diluted in PBS /2% bovine serum albumin/2% normal horse serum (for anti-PTEN) or TBS/0.1% Tween/5% normal goat serum (for phosphosite-specific antibodies) and applied overnight at 4 °C. Biotinylated secondary antibodies (Vector) were applied at 1:200 dilution for 45 min, and the avidin-biotin complex (Elite ABC, Vector) for 30 min. Vector NovaRed was used as the enzyme substrate to visualize specific antibody localization. […] All slides were counterstained with Harris hematoxylin.
# We assessed Akt activity in S1 and S2 samples in the rapamycin-treated patients using phosphosite-specific antibodies against the serine/threonine kinase Akt (serine 473) and its downstream substrate PRAS 40 (threonine 246), which serves as a biomarker for Akt activity (Figure 4A). PRAS40 has also been recently shown to inhibit mTOR, and this inhibition is relieved by Akt phosphorylation.
# (§1) Scoring of immunohistochemical stains. […] Digital scores for PTEN, phospho-S6, and phospho-PRAS40 are based on absolute staining intensity of tumor cells as quantified following false-color conversion. PTEN, phospho-S6, phospho-PRAS40, and Ki-67 were scored in representative and matching areas of consecutive tissue sections (Suppl. Fig. 1), excluding areas with large vessels and/or prominent reactive changes (e.g., reactive astrogliosis or lymphocytic infiltration). […] Quantitative analysis was done using HSI color algorithm based on hue, saturation and intensity. Saturations of the separated cell in the images were quantified in the red-brown hue range to exclude the negative staining area with hematoxylin nuclear staining. To compare the staining intensity of all slides, mean saturation of total cells on each image was quantified and calculated. For Ki-67 staining scoring, separated cells were quantified with red brown hue range (positive staining) and total hue range (all cells) after cell border separation and Ki-67 labeling index was calculated based on these numbers. […]
# [3] = test system: recurrent PTEN-deficient glioblastoma; assay: Clinical outcome: time-to-progression and radiographic response; format: in vivo, human; settings: for TTP: interval between start of rapamycin and postoperative treatment failure, individual patients
# Excerpt: Figure 1 Clinical Trial Design Enrollment in the Phase I clinical trial was restricted to patients whose initial tumor resection (“surgery 1”) specimen was PTEN-deficient by immunohistochemistry. Patients were enrolled after failing standard therapy with radiation and chemotherapy (i.e., “tumor recurrence”).
# Patients were allowed two dose reductions.
# [4] = test system: PTEN-null cell lines; design: method as in PMID 11504908, PMID 11566616; settings: PTEN-null cell lines in vitro; cited from earlier work
# [5] = cited from earlier work; for mucosal HERPES SIMPLEX infections, patients: phase III trial, with cyclosporine and corticosteroids, ref MacDonald et al, 2001
# [6] = test system: PTEN-deficient glioblastoma; assay: Ki-67 labeling index of tumor tissue (S2 versus S1); format: in vivo, human; settings: for Ki-67 Decrease: about 1 wk pre-operative, S2 vs S1, individual patients
# Excerpt: To quantify mTOR activity in matched S1 and S2 samples, we measured phosphorylation of S6 ribosomal protein by immunohistochemistry using two distinct phosphosite antibodies directed against Ser235/236 or Ser240/244. […] Immunohistochemistry (IHC) scoring is described in detail in Text S1.
# The following antibodies were used for IHC: anti-PTEN (6H2.1, #ABM-2052, Cascade BioScience; 1:400 dilution), anti-Ki-67 (MIB-1, M7240, DakoCytomation; 1:100 Dilution), anti-phospho Ser235/236 S6 (91B2, #4857, Cell Signaling; 1:50 dilution), anti phospho Ser240/244 S6 (#2215, Cell Signaling; 1:200 dilution), anti-phospho-PRAS 40 (#44–1100G, Biosource; 1:200 dilution), anti-phospho Ser473 Akt (736E11, #3787, Cell Signaling; 1:50 dilution), anti-phospho Thr389 p70 S6 Kinase (#9205, Cell Signaling; 1:100 Dilution), and anti phospho Ser1108 eIF4G at 1:400 (#2441, Cell Signaling; 1:400 dilution). Antigen retrieval was performed using 0.01 M citrate buffer, pH 6.0 for 30 min in an oven and peroxidase activity was quenched with 3% hydrogen peroxide in water. Primary antibodies were diluted in PBS /2% bovine serum albumin/2% normal horse serum (for anti-PTEN) or TBS/0.1% Tween/5% normal goat serum (for phosphosite-specific antibodies) and applied overnight at 4 °C. […]
# as §1, with “numbers. For p-PRAS40 scoring, mean saturation of the positive staining tumor cells was quantified in the red-brown hue range, followed by multiplying the positive cell ratio in the same image to evaluate both staining intensity and staining distribution. pS473 Akt was quantified on a scale of 0-2; 0^+ = no staining, 1^+ = mild intensity cytoplasmic staining, and 2^+ = strong cytoplasmic staining.” for “numbers.”
# [7] = test system: short-term cultures derived from tumors; assay: Ex vivo rapamycin response of short-term tumor cultures (S6 immunoblot); format: cell-based, human; settings: 0.3 and 3.0 nM, 8 h; rapamycin-sensitive (patients 1 and 3) and rapamycin-resistant (patients 2 and 12) samples
# Excerpt: The lower and upper end of the box corresponds to the 25th and 75th percentile, respectively. The whiskers extend to the 95% range. The Wilcoxon nonparametric group comparison test was used to calculate p-values for the differences between different patient groups. […] The horizontal line inside the box indicates the median value. The lower and upper border of the box corresponds to the 25th and 75th percentile, respectively. The whiskers extend to the 95% range.
# [8] = human, in vivo, cited from earlier work
compound,measurement,setting,value
CO[C@H]1C[C@@H]2CC[C@@H](C)[C@@](O)(O2)C(=O)C(=O)N2CCCC[C@H]2C(=O)O[C@H]([C@H](C)C[C@@H]2CC[C@@H](O)[C@H](OC)C2)CC(=O)[C@H](C)/C=C(\C)[C@@H](O)[C@@H](OC)C(=O)[C@H](C)C[C@H](C)/C=C/C=C/C=C/1C [Rapamycin],cytochrome P450 substrate,[1],substrate for the cytochrome P450 isoenzyme 3A4
same,pPRAS 40 Induction,[2]; 2 mg oral daily,Yes
same,pPRAS 40 Induction,[2]; 5 mg oral daily,No and Yes
same,pPRAS 40 Induction,[2]; 10 mg oral daily,Yes and No
same,patients with statistically significant increase in PRAS40 phosphorylation in S2 sample,"[2]; Seven of 14 patients, p < 0.05, Wilcoxon test",50%
same,TTP,[3]; 2 mg oral daily,62 days and 40 days and 70 days
same,TTP,[3]; 5 mg oral daily,194 days and 69 days and 144 days and 153 days and 42 days
same,TTP,[3]; 10 mg oral daily,39 days and 538 days and 98 days and 146 days and 99 days and 55 days
same,tumor regression by magnetic resonance imaging,"[3]; Patient 8, extended neoadjuvant course (25 d), 5 mg, prior to surgery",> 50%
same,duration of radiographically stable disease postoperatively,[3]; Patient 11,> 16 mo
same,time from starting rapamycin to death without evidence of tumor recurrence,"[3]; Patient 11, 10 mg",538 days
same,Radiographic Response to Rapamycin,"[3]; single-agent rapamycin, study patients",2/15
same,Rapamycin concentrations known to confer antiproliferative activity,[4],~1 nM
same,"ANEMIA, patients","[5]; human, in vivo",27-37%
same,ARTHRALGIA,"[5]; human, in vivo",25-31%
same,CONSTIPATION,"[5]; human, in vivo",28-36%
same,DIARRHEA,"[5]; human, in vivo",25-42%
same,DYSPEPSIA,"[5]; human, in vivo",17-25%
same,"DYSPNEA, patients","[5]; human, in vivo",22-30%
same,"EPISTAXIS, patients","[5]; human, in vivo",9%
same,"HEADACHE, patients","[5]; human, in vivo",23-34%
same,"HYPERTENSION, patients","[5]; human, in vivo",43-45%
same,"HYPOKALEMIA, patients","[5]; human, in vivo",11-21%
same,"HYPOPHOSPHATEMIA, patients","[5]; human, in vivo",15-23%
same,Hyperlipidemia,"[5]; human, in vivo",38-57%
same,NAUSEA,"[5]; human, in vivo",25-36%
same,Normalization of platelet counts after discontinuation,"[5]; human, in vivo",≤ 2 weeks
same,"Peripheral EDEMA, patients","[5]; human, in vivo",54-64%
same,Posttransplant lymphoproliferative disease (PTLD),"[5]; human, in vivo",0.8%
same,"THROMBOCYTOPENIA, patients","[5]; human, in vivo",13-30%
same,VOMITING,"[5]; human, in vivo",19-25%
same,"arthralgia, patients","[5]; human, in vivo",23%
same,hypercholesterolemia,"[5]; human, in vivo",38-46%
same,"insomnia, patients","[5]; human, in vivo",13-22%
same,patients with triglyceride levels exceeding 5 mmol/L,"[5]; human, in vivo",75%
same,total cholesterol mean peak,"[5]; human, in vivo",12 mmol/L
same,"tremor, patients","[5]; human, in vivo",21-31%
same,"mucosal HERPES SIMPLEX infections, patients",[5]; sirolimus 2 mg/day,10%
same,"mucosal HERPES SIMPLEX infections, patients",[5]; sirolimus 5 milligrams (mg)/day,19%
same,Ki-67 Decrease,[6]; 2 mg oral daily,Yes and No
same,Ki-67 Decrease,[6]; 5 mg oral daily,No and Yes
same,Ki-67 Decrease,[6]; 10 mg oral daily,Yes and No
same,patients with nearly complete inhibition (dramatic reduction) of tumor cell proliferation,[6]; Ki-67 staining after about 1 wk of rapamycin,seven of 14 and 7/14
same,S6 phosphorylation ex vivo,[7],inhibited equally
same,Vdss,[8]; iv,1.1 to 1.3 L/kg
same,half-life,[8],40 to 60 h
